Test results taken from patent US20210147472A1, “SOLID FORMS AND FORMULATIONS COMPRISING A GLUCOCORTICOID RECEPTOR ANTAGONIST AND USES THEREOF” (ORIC Pharmaceuticals, Inc., priority 2018, published 2021).
Values after ≈ are worked out from the molar mass of the structure shown.

Experiments:
Assay type in all cases: physicochemical
[1] = Solubility screen of Compound 1 in lipids; details: oil or lipid
[2] = Effect of stabilizers on stability of Compound 1 capsule matrix (A1 formation)
Description: Two antioxidants, α-tocopherol and ascorbyl palmitate, were evaluated to minimize the oxidation. Use of α-tocopherol alone improved Compound 1 stability as measured by the formation of A1 (see Table 1). When ascorbyl palmitate was combined with α-tocopherol, further stability improvement was observed. Table 14 summarizes the compositions of the Compound 1 capsule matrix evaluated and Table 15 summarizes the effect of α-tocopherol and ascorbyl palmitate as stabilizers on the stability of Compound 1.

[3] = Solubility of Compound 1 (freebase form) in dosing vehicles, HPLC; details: shaken five days, 25° C. (40° C. semi-solid, 50° C. solid vehicles)
Description: This study was carried out to evaluate the solubility of Compound 1 (freebase form) in a variety of dosing vehicles to identify excipient classes that maximize drug solubility. A total of 20 vehicles which were selected and agreed with the customer were used in this study. Compound 1 was added to approximately 1 gram of the excipients. After the initial addition of Compound 1, the mixtures were shaken in a temperature-controlled vortex mixer at 25° C. (40° C. for vehicles that were semi-solid at room temperature and 50° C. for solid vehicles) then examined for solid residues. If dissolution was observed during the mixing time, additional Compound 1 was added until no further dissolution was observed. After shaking for a total of five days, the suspensions were filtered using a centrifuge tube with 0.45 PVDF membrane filter (Millipore Durapore®). The filtrate was weighed in to a 25-mL volumetric flask and diluted to volume with the diluent solution (90:10% v/v IPA/Acetonitrile) for a determination of Compound 1 concentration via High Performance Liquid Chromatography (HPLC). Residual solids were inspected by PXRD to determine the solid form. Quantitative determination of the amount of API dissolved was performed using reverse-phase HPLC analyses on an Agilent 1290 Infinity II UHPLC system equipped with a Diode Array Detector (DAD). Agilent 1290 Infinity II UHPLC system equipped with a Diode Array Detector (DAD) Mobile Phase A: 0.05% Formic acid in water Mobile Phase B: 0.05% Formic acid in acetonitrile

In the case of `CC(C)N(C)c1ccc([C@H]2C[C@@]3(C)[C@@H](CC[C@@]3(O)C#CC(C)(C)C)[C@@H]3CCC4=CC(=O)CC[C@@H]4[C@H]32)cc1` [Compound 1, (8R,9S,10R,11S,13S,14S,17S)-17-(3,3-dimethylbut-1-yn-1-yl)-17-hydroxy-11-(4-(isopropyl(methyl)amino)phenyl)-13-methyl-1,2,6,7,8,9,10,11,12,13,14,15,16,17-tetradecahydro-3H-cyclopenta[a]phenanthren-3-one], the Solubility ([1]; in Capmul MCM (Glyceryl monocaprylcaprate, Type I, NF)) is reported as under 40 mg/mL, the Solubility ([1]; in Capryol 90 (Propylene glycol monocaprylate, Type II, NF)) is reported as 40 mg/mL (≈ 79.7 mM) and the Solubility ([1]; in Capryol 90 + 5% Poloxamer P188 USP, particulate seen after 24 hours) is reported as 50 mg/mL. The Solubility ([1]; in Kolliphor EL (PEG-35 Castor Oil USP)) was under 40 mg/mL, the Solubility ([1]; in Labrasol ALF (Caprylocaproyl Polyoyl-8 glycerides, NF)) was 40 mg/mL (≈ 79.7 mM) and the Solubility ([1]; in Maisine CC (Caprylic/capric triglyceride NF)) was under 40 mg/mL. For the same molecule, the Solubility ([1]; in Tween 20 (Polysorbate 20 NF)) was under 40 mg/mL, the Solubility ([1]; in Tween 80 (polysorbate 80 NF)) was under 40 mg/mL and the “Formation of A1” value ([2]; combination of α-tocopherol and ascorbyl palmitate as stabilizers) was “substantially suppresses”. For the same molecule, the “Formation of primary oxidative N-demethylation product (A1)” value ([2]; in caprylic acid, extended stability, after about 4-6m) was “greater than 4%”, the “Compound 1 stability as measured by the formation of A1” value ([2]; use of α-tocopherol alone) was “improved” and the Solubility ([3]; in Caprylocaproyl polyoxyl-8 glycerides) was 42.4 mg/g. The Solubility ([3]; in Decanoic acid (Capric acid)) was 201.0 mg/g, the Solubility ([3]; in Diethyl glycol monoethyl ether) was 130.3 mg/g and the Solubility ([3]; in Glycerin) was 0.1 mg/g. The Solubility ([3]; in Glyceryl caprylate/caprate) was 79.0 mg/g, the Solubility ([3]; in Glyceryl monolinoleate) was 41.2 mg/g and the Solubility ([3]; in Lauroyl polyoxyl-6 glycerides) was 40.8 mg/g. For the same molecule, the Solubility ([3]; in Lauroyl polyoxyl-32 glycerides) was 39.2 mg/g, the Solubility ([3]; in Medium chain triglycerides) was 26.1 mg/g and the Solubility ([3]; in Octanoic acid (Caprylic acid)) was 199.2 mg/g. The Solubility ([3]; in PEG 400) was 14.5 mg/g, the Solubility ([3]; in Polyethylene glycol monostearate) was 34.2 mg/g and the Solubility ([3]; in Polyethylene glycol sorbitan monolaurate) was 26.1 mg/g. For the same molecule, the Solubility ([3]; in Propylene Glycol) was 12.1 mg/g, the Solubility ([3]; in Propylene glycol monocaprylate) was 139.6 mg/g and the Solubility ([3]; in Propylene glycol monolaurate) was 68.4 mg/g. It also gave a Solubility ([3]; in Sorbitan Monolaurate) of 34.1 mg/g, a Solubility ([3]; in Sorbitan monooleate) of 19.5 mg/g and a Solubility ([3]; in Triacetin) of 21.9 mg/g. For the same molecule, the Solubility ([3]; in Vitamin E TPGS) was 8.3 mg/g.
